Laboratory results as given in patent US9708334B2, “Substituted 2,4,5,6-tetrahydropyrrolo[3,4-c]pyrazole and 4,5,6,7-tetrahydro-2H-pyrazolo[4,3-c]pyridine compounds as GlyT1 inhibitors” (DART NEUROSCIENCE (CAYMAN) LTD., priority 2014, dated 2017).

Target: T1, GlyT1 (Homo sapiens, UniProt P48067)
T1 construct: expressed in transfected cells
T1 sequence (P48067 1-706): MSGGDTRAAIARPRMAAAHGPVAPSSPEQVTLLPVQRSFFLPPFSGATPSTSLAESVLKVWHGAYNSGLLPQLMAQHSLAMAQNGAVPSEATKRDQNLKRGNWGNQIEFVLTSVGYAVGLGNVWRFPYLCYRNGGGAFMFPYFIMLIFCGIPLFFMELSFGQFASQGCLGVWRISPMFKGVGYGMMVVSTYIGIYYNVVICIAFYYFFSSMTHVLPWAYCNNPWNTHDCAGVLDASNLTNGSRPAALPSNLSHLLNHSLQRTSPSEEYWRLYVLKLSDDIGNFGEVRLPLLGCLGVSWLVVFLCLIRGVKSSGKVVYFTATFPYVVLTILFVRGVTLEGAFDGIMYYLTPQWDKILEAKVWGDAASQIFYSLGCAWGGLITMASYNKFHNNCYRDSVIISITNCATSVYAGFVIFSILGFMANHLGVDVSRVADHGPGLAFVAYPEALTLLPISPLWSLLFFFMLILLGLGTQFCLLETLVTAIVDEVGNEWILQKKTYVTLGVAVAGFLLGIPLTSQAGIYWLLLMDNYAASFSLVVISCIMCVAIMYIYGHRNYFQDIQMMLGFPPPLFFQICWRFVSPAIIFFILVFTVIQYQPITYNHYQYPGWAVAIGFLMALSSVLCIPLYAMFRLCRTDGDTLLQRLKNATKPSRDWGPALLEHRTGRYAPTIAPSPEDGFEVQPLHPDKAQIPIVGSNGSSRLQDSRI
Assay: Glycine Transporter 1 (GlyT1) uptake assay, scintillation proximity assay of [14C]-glycine uptake
Format: cell-based
Conditions: SPA, four parameter logistic fit, read-out: GlyT1 (pIC50) (converted)
Summary of the method: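 IC50 values derive from four-parameter logistic curves fitted to dose-response data. Uptake of [14C]-glycine measured in scintillation proximity format.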

IC50	Structure (SMILES)
< 0.1 µM	CS(=O)(=O)c1ccc(N2CCC(F)(F)CC2)c(C(=O)N2Cc3cn(C4CCCC4)nc3C2)c1 [Example 430, 1-(2-{2-Cyclopentyl-2H 4H 5H 6H-pyrrolo[3,4-c]pyrazole-5-carbonyl}-4-methanesulfonylphenyl)-4 4-difluoropiperidine]
1 to 10 µM	CC(C)n1ncc2c1CN(C(=O)c1cc(C#N)ccc1O[C@@H](C)C(F)(F)F)C2 [Example 384, 3-[1-(Propan-2-yl)-1H 4H 5H 6H-pyrrolo[3,4-e]pyrazole-5-carbonyl]-4-{[(2S)-1 1 1-trifluoropropan-2-yl]oxy}benzonitrile]
< 0.1 µM	COc1c(C#N)ccc(OCC(F)F)c1C(=O)N1Cc2cn(-c3cccc(C)n3)nc2C1 [Example 332, 4-(2 2-Difluoroethoxy)-2-methoxy-3-[2-(6-methylpyridin-2-yl)-2H 4H 5H 6H-pyrrolo[3,4-c]pyrazole-5-carbonyl]benzonitrile]
0.1 to 1 µM	C[C@H](Oc1ccc(C#N)c(Cl)c1C(=O)N1CCc2nn(-c3ccnc(C(F)(F)F)c3)cc2C1)C(F)(F)F [Example 240, 2-Chloro-3-{2-[2-(trifluoromethyl)pyridin-4-yl]-2H 4H 5H 6H 7H-pyrazolo[4,3-c]pyridine-5-carbonyl}-4-{[(2S)-1 1 1-trifluoropropan-2-yl]oxy}benzonitrile]
< 0.1 µM	COc1c(C#N)ccc(OCC2CC2)c1C(=O)N1Cc2cn(-c3ccc(F)cc3)nc2C1 [Example 317, 4-(Cyclopropylmethoxy)-3-[2-(4-fluorophenyl)-2H 4H 5H 6H-pyrrolo[3,4-c]pyrazole-5-carbonyl]-2-methoxybenzonitrile]
0.1 to 1 µM	CC(C)Oc1ccc(C#N)cc1C(=O)N1Cc2cn(CC3CC3(F)F)nc2C1 (centres unmarked) [Example 456, 3-{2-[(2 2-Difluorocyclopropyl)methyl]-2H 4H 5H 6H-pyrrolo[3,4-c]pyrazole-5-carbonyl}-4-(propan-2-yloxy)benzonitrile]
< 0.1 µM	CS(=O)(=O)c1ccc(-c2cncc(F)c2)c(C(=O)N2Cc3cn(-c4ccccc4F)nc3C2)c1 [Example 561, 3-Fluoro-5-{2-[2-(2-fluorophenyl)-2H 4H 5H 6H-pyrrolo[3,4-c]pyrazole-5-carbonyl]-4-methanesulfonylphenyl}pyridine]
0.1 to 1 µM	COc1c(C#N)ccc(OC(C)C(F)(F)F)c1C(=O)N1CCc2nn(-c3ccc(Cl)cn3)cc2C1 (centres unmarked) [Example 229, 3-[2-(5-Chloropyridin-2-yl)-2H 4H 5H 6H 7H-pyrazolo[4,3-c]pyridine-5-carbonyl]-2-methoxy-4-[(1 1 1-trifluoropropan-2-yl)oxy]benzonitrile]
1 to 10 µM	Cc1cccc(-n2cc3c(n2)CN(C(=O)c2cc(S(=O)(=O)C(C)C)ccc2OC(C)C)C3)c1F [Example 94, 2-(2-Fluoro-3-methylphenyl)-5-[2-(propan-2-yloxy)-5-(propane-2-sulfonyl)benzoyl]-2H 4H 5H 6H-pyrrolo[3,4-c]pyrazole]

The next lines start with the molecule.

Structure (SMILES)	IC50
Cc1cccnc1-n1cc2c(n1)CN(C(=O)c1c(O[C@H](C)C(F)(F)F)ccc(C#N)c1Cl)C2 [Example 31, 2-Chloro-3-[2-(3-methylpyridin-2-yl)-2H 4H 5H 6H-pyrrolo[3,4-c]pyrazole-5-carbonyl]-4-{[(2R)-1 1 1-trifluoropropan-2-yl]oxy}benzonitrile]	0.1 to 1 µM
Cc1cc(-n2cc3c(n2)CN(C(=O)c2cc(C#N)ccc2OCC2(C)COC2)C3)ccn1 [Example 538, 4-[(3-Methyloxetan-3-yl)methoxy]-3-[2-(2-methylpyridin-4-yl)-2H 4H 5H 6H-pyrrolo[3,4-c]pyrazole-5-carbonyl]benzonitrile]	1 to 10 µM
Cc1cccc(-n2cc3c(n2)CN(C(=O)c2cc(S(C)(=O)=O)ccc2O[C@@H](C)C(F)(F)F)C3)n1 [Example 360, 2-[5-(5-Methanesulfonyl-2-{[(2S)-1 1 1-trifluoropropan-2-yl]oxy}benzoyl)-2H 4H 5H 6H-pyrrolo[3,4-c]pyrazol-2-yl]-6-methylpyridine]	< 0.1 µM
CC(C)COc1ccc(S(C)(=O)=O)cc1C(=O)N1Cc2cn(-c3ccccc3)nc2C1 [Example 51, 5-[5-Methanesulfonyl-2-(2-methylpropoxy)benzoyl]-2-phenyl-2H 4H 5H 6H-pyrrolo[3,4-c]pyrazole]	< 0.1 µM
N#Cc1ccc(OCC(F)F)c(C(=O)N2Cc3cn(-c4ccc(F)cc4)nc3C2)c1 [Example 527, 4-(2 2-Difluoroethoxy)-3-[2-(4-fluorophenyl)-2H 4H 5H 6H-pyrrolo[3,4-c]pyrazole-5-carbonyl]benzonitrile]	1 to 10 µM
Cc1ccc(F)c(-n2cc3c(n2)CN(C(=O)c2cc(S(C)(=O)=O)ccc2OCC2(C)COC2)C3)c1 [Example 442, 2-(2-Fluoro-5-methylphenyl)-5-{5-methanesulfonyl-2-[(3-methyloxetan-3-yl)methoxy]benzoyl}-2H 4H 5H 6H-pyrrolo[3,4-c]pyrazole]	0.1 to 1 µM
CC(C)Oc1ccc(S(C)(=O)=O)cc1C(=O)N1Cc2cn(CC3CC(F)(F)C3)nc2C1 [Example 461, 2-[(3 3-Difluorocyclobutyl)methyl]-5-[5-methanesulfonyl-2-(propan-2-yloxy)benzoyl]-2H 4H 5H 6H-pyrrolo[3,4-c]pyrazole]	< 0.1 µM
C[C@H](Oc1ccc(C#N)cc1C(=O)N1Cc2cn(-c3ccn4ccnc4c3)nc2C1)C(F)(F)F [Example 425, 3-(2-{Imidazo[1 2-a]pyridin-7-yl}-2H 4H 5H 6H-pyrrolo[3,4-c]pyrazole-5-carbonyl)-4-{[(2S)-1 1 1-trifluoropropan-2-yl]oxy}benzonitrile]	0.1 to 1 µM
C[C@H](Oc1ccc(C#N)c(Cl)c1C(=O)N1Cc2cn(-c3cn(C)cn3)nc2C1)C(F)(F)F [Example 292, 2-Chloro-3-[2-(1-methyl-1H-imidazol-4-yl)-2H 4H 5H 6H-pyrrolo[3,4-c]pyrazole-5-carbonyl]-4-{[(2S)-1 1 1-trifluoropropan-2-yl]oxy}benzonitrile]	0.1 to 1 µM
Cc1cncc(-c2ccc(S(C)(=O)=O)cc2C(=O)N2Cc3cn(-c4ccc(F)cn4)nc3C2)c1 [Example 549, 5-Fluoro-2-{5-[5-methanesulfonyl-2-(5-methylpyridin-3-yl)benzoyl]-2H 4H 5H 6H-pyrrolo[3,4-c]pyrazol-2-yl}pyridine]	< 0.1 µM
C[C@H](Oc1ccc(C#N)c(Cl)c1C(=O)N1Cc2cn(-c3ccc(C(F)(F)F)cn3)nc2C1)C(F)(F)F [Example 286]	0.1 to 1 µM
